Data as given in patent US9040091B2 (priority 2012, dated 2015).

How the values were obtained:
[1] = Americium-241 decorporation in rats (tissue levels and excretion); type: in vivo; conditions: NanoDTPA capsules PO 60 mg/kg DTPA; for liver total Am-241 activity: rat liver, Zn-DTPA IV 15 mg/kg DTPA, per 200 ul homogenized tissue
Protocol: The decorporation and excretion properties in rodents of oral NanoDTPA capsules at 60 mg/kg DTPA according to the present disclosure was compared to IV Zn-DTPA solution at 15 mg/kg DTPA, which is the currently licensed product available to the public. The studies were designed to provide data that systemic Am-241 at a single low dose followed by oral NanoDTPA capsules can provide a sufficient radiation dose reduction as an efficacy endpoint. All DTPA dosing was initiated 24 hours post-exposure to isotope (Am-241) in this set of studies to simulate a realistic emergency response time following exposure. Two sets of measurements were made: (1) internal tissue levels at 2, 4, and 7 days vs. (2) daily excreted concentrations in urine and feces.
There was a general trend of tissue reduction in all groups over the 3, 5, and 8 day observation period. All data are expressed as total Am-241 activity in nCi per 200 ul blood, homogenized tissue, or output (urine and feces).

[2] = Single dose pharmacokinetic testing, DTPA in blood of male beagle dogs; type: in vivo; conditions: 72 hours post-dose
Protocol: The objective of this study was to evaluate the concentration of DTPA in blood following a single administration with either Zn-DTPA injectable solution or NanoDTPA capsules using male beagle dogs. Single dose pharmacokinetic (PK) testing groups of Zn-DTPA solution vs. NanoDTPA capsules included nine study groups used for the PK testing. Zn-DTPA solution was delivered intravenously (IV) and by mouth (per os, PO) and NanoDTPA capsules were administered PO. […] Three formulations of NanoDTPA capsules were tested to examine different formulations of NanoDTPA powder and different capsule sizes. The dose for each NanoDTPA capsule formulation was either two or six capsules and the calculated DTPA doses confirmed based on the amount of DTPA in the capsules and body weight.

[3] = Americium-241 decorporation in dogs (urine, feces, tissue Am-241); type: in vivo, beagle dogs; conditions: daily dosing days 1-14, Zn-DTPA IV 15 mg/kg, NanoDTPA 1, 2 or 6 capsules/day or 2 capsules twice/day
Source text: The objective of this study was to evaluate the dose-related efficacy of daily doses of NanoDTPA capsules in male and female beagle dogs intravenously (IV) administered a soluble citrate complex of americium-241 (Am-241). Twenty-four (24) male and female beagle dogs underwent a 14-day quarantine period for acclimation. Once released from quarantine, animals were weighed and randomized into study animals or spares. The average body weight of study animals was 8.6±0.9 kg (males 9.0±1.0 kg; females 8.2±0.7 kg). After randomization, animals were acclimated to metabolism cages for 24 hours prior to radionuclide administration. Animals received a single IV administration of 241Am(III)-citrate on Day 0. One day after radionuclide administration, one of four different doses of NanoDTPA capsules [1, 2, or 6-capsules/day or 2 capsules twice/day], IV Zn-DTPA [15 mg/kg] as a positive control, or IV saline as a placebo were administered. NanoDTPA capsules, IV Zn-DTPA, or IV saline was administered on study days 1-14. Urine and feces were collected daily. Animals were euthanized on day 21 and tissues collected. Urine, fecal, and tissue samples were analyzed for Am-241 content.

[4] = Solubility of DTPA in neutral pH buffer, with and without zinc acetate; type: physicochemical
Protocol: As used herein, the terms “poorly absorbed drug,” “drug having low solubility,” and the like refer to a drug (in its neutral (i.e., uncharged) state) having a water solubility in neutral pH buffer of less than about 20 mg/ml. […] Thus, as used herein, DTPA (including DTPA and its salts, hydrates, solvates, complexes, etc.) is a poorly absorbed drug. […] In some embodiments, the present disclosure provides a pharmaceutical composition comprising a composition with improved aqueous solubility comprising a DTPA and zinc acetate composition of the present disclosure.

Row | SMILES | liver total Am-241 activity ([1]; after 2 doses, dosing from 24 h post-exposure) | liver total Am-241 activity ([1]; after 4 doses) | liver total Am-241 activity ([1]; after 7 doses) | tissue Am-241 concentrations compared to control animals receiving no DTPA treatment ([1]; rats, Zn-DTPA IV 15 mg/kg) | percent bioavailability ([2]; PO 6 mg DTPA/kg) [%] | percent bioavailability ([2]; PO 60 mg DTPA/kg) [%] | Am-241 activity excreted in the urine compared to the saline placebo [3] | increase of the solubility of DTPA ([4]; about 10 mg/ml zinc acetate) | solubility of DTPA with zinc acetate ([4]; about 10 mg/ml zinc acetate) | increase of the solubility of DTPA ([4]; about 20 mg/ml zinc acetate) | solubility of DTPA with zinc acetate ([4]; about 20 mg/ml zinc acetate) | solubility in neutral pH buffer ([4]; neutral pH buffer, no additive) [mg/ml]
1 | O=C([O-])CN(CCN(CC(=O)[O-])CC(=O)[O-])CCN(CC(=O)[O-])CC(=O)[O-].[Na+].[Na+].[Na+].[Zn+2] [Zn-DTPA] | 116.37+/−26.90 nCi | 81.70+/−11.53 nCi | 55.42+/−19.68 nCi | significantly lower | 12.26 | 12.67 | approximately 9.4 times |  |  |  |  | 
2 | O=C(O)CN(CCN(CC(=O)O)CC(=O)O)CCN(CC(=O)O)CC(=O)O [DTPA, diethylenetriaminepentaacetate] |  |  |  |  |  |  |  | about 35% | about 23.3 mg/ml | about 83% | about 31.5 mg/ml | < 17.2
